{"source": "patent US8889731B2", "about": "“Compounds, compositions and methods for repelling blood-feeding arthropods and deterring their landing and feeding” (Contech Enterprises Inc., priority 2007, dated 2014)", "key": {"mosquitoes": {"test_system": "mosquitoes", "test": "General bioassay procedure with garlic oil, its components and fractions (mosquito species not given)", "type": "in vivo", "experimental": "(§1) Candidate repellents and deterrents were bioassayed according to a modified protocol from the World Health Organization (1996). At least 1 hour prior to each bioassay, 75 host-seeking non blood-fed, nulliparous, 5- to 8-day-old female Aedes aegypti, Anopheles gambiae or Culex quinquefasciatus were placed into a wood-framed cage (26.5 cm on each side and 42.5 cm high) with a wooden floor, screened mesh sides and top, and a clear acrylic front fitted with a cotton stockinette sleeve (10 cm diameter). The test subject's arm was covered with an elbow-length polyethylene glove with an excised patch (16.6 cm long, 6 cm wide) to expose the ventral forearm of the test subject. Candidate deterrents were formulated in mineral (paraffin) oil and applied to the exposed forearm 5 min prior to inserting the arm into the cage. The inserted arm remained in the cage for 3 min every 30 min. Prior to each 3-min bioassay period, the hand of the untreated arm was inserted into the cage to ascertain that it received 10 bites within 30 sec as an indication of “biting pressure”.\n(§2) The bioassay was terminated when the treated arm received ≧2 bites in one 3-min bioassay period or one bite in each of two consecutive bioassay periods. The time elapsed from experiment initiation to first bite was recorded as deterrent failure or complete protection time.\n(§3) N,N-diethyl-m-toluamide formulated in ethanol at a corresponding dose served as a positive control, and mineral oil by itself served as a negative control. On each day, only one candidate compound was tested, ensuring that any residual material in the chamber had disappeared before the next bioassay.\nGarlic oil (Allium sativum—Mexico; Clearwater Soap Works, Box 1775 RR1, Clearwater, BC V0E 1N0, Canada) was formulated in mineral oil and tested using the general bioassay procedure described in EXAMPLE 2 at a dose of 0.1 mg per cm^2 of arm surface. It expressed repellence and deterrence for ˜30 min.\nSome of the 10 components in FIG. 1 were bioassayed singly (see general bioassay procedure) and in various combinations, all of which were as deterrent to mosquitoes as garlic oil.\nTo determine the most deterrent component(s) in garlic oil, it was fractionated by HPLC into four fractions, each containing one or more of the EAD-active components (compounds 1-10 in FIG. 1 and 11-14 in TABLE 2). Each fraction was then bioassayed and shown to be similarly effective in repelling and deterring mosquitoes.\n(§4) Components with high molecular weight (>250 daltons) are advantageous in that they: 1) dissipate slowly from treated surfaces; 2) provide long-lasting protection against mosquitoes and 3) convey little, if any, offensive smell. The relative abundance of such components was enhanced by treating garlic oil under vacuum, thus stripping away lower-boiling components. In GC-EAD analyses of the high-boiling residue, four components elicited responses from mosquito antennae."}, "Aedes aegypti": {"test_system": "Aedes aegypti", "test": "Arm-in-cage repellent/deterrent bioassay on exposed human forearm (modified WHO protocol), Aedes aegypti", "type": "in vivo", "conditions": "for pest or weed control at 0.1 mg/cm2: Aedes aegypti, topical, (C-T)/C x 100 at time of failure, read-out: Percent repellence", "experimental": "as §1, §2, §3\nTo determine the repellence and deterrence of 8-allylsulfanyloctan-1-ol against Aedes aegypti, a 5%, 10% or 25% formulation of 8-allylsulfanyloctan-1-ol in mineral oil was applied in Experiments 1-3 at a dose of 1.5 mg (total composition) per cm^2 to the skin of the test person, and was bioassayed according to the protocol described under EXAMPLE 2. In Experiment 4, mineral oil by itself served as a negative control and was bioassayed at the same dose (1.5 mg per cm^2) as in Experiments 1-3. Each of Experiments 1-4 was replicated four times.\nTo compare the repellence and deterrence against Aedes aegypti caused by 8-allylsulfanyloctan-1-ol as a single active ingredient and by 8-allylsulfanyloctan-1-ol in combination with vanillin as a second active ingredient, we tested a 6.7% emulsion of vanillin (Experiment 14), a 6.7% emulsion of 8-allylsulfanyloctan-1-ol (Experiment 15), and a 13.4% emulsion of 8-allylsulfanyloctan-1-ol plus vanillin (1:1 ratio) (Experiment 16). 8-Allylsulfanyloctan-1-ol and vanillin were formulated in Emulsion No. 1 (see EXAMPLE 9). In each of Experiments […], test stimuli were applied at a dose of 1.5 mg per cm^2 to the skin of the test person, and were bioassayed according to the protocol described under EXAMPLE 2. In Experiment 17, Emulsion No. 1 served as a positive control and was tested at the same dose (1.5 mg per cm^2) as in Experiments 14-16.\nTo be able to compare the repellence and deterrence caused by N,N-diethyl-m-toluamide and by 8-allylsulfanyloctan-1-ol plus vanillin in Emulsion No. 1 (EXAMPLE 9), Experiment 26 tested a 6.7% formulation of N,N-diethyl-m-toluamide in ethanol (the best formulant for DEET) for protection from bites by Aedes egypti. In each replicate, a dose of 1.5 mg per […] was applied to the skin of the test person and bioassayed according to the protocol described under EXAMPLE 2.\nTo be able to further compare the deterrence caused by N,N-diethyl-m-toluamide with that caused by 8-allylsulfanyloctan-1-ol plus vanillin, Experiment 27 tested a 10.4% formulation of N,N-diethyl-m-toluamide in ethanol, and Experiment 28 tested 8-allylsulfanyloctan-1-ol (10.4%) plus vanillin (7.9%) in Emulsion No. 2 (EXAMPLE 10). […]"}, "[1]": {"test_system": "male or female Aedes aegypti antennae", "test": "Coupled gas chromatographic-electroantennographic detection (GC-EAD) of garlic oil extract", "experimental": "FIG. 1 illustrates flame ionization detector (FID) and electroantennograhic detector (EAD: male or female Aedes aegypti antennae) responses to aliquots of the low boiling temperature portion of garlic oil extract. Chromatography: Hewlett Packard (HP) gas chromatograph equipped with a fused silica column (30 m×0.32 mm ID) coated with DB-5; injector and detector temperature: 250° C.; temperature program: 50° C.\nAliquots of garlic oil extracts were then subjected to coupled gas chromatographic-electroantennographic detection (GC-EAD) analysis. Fourteen components (10 shown in FIG. 1) elicited responses from female or male mosquito antennae. Some of these components were isolated by high-performance liquid chromatography (HPLC) for identification by nuclear magnetic resonance spectroscopy (NMR). Other components were identified (compounds 11-14 in TABLE 2) by coupled GC-mass spectrometry and by retention index calculations. […] Four of the 10 components in FIG. 1 were tentatively identified by comparing their mass spectra and retention indices with those reported in the literature (Block et al. 1998).\nas §4"}, "[2]": {"conditions": "Dosage >0.1 mg/cm^2 (so in the source)"}}, "note": "Like-named read-outs stand apart in the source and are kept apart here."}
{"smiles": "C=CCSSCCCSSCC=C", "note": "[Compound 11, 4,5,9,10-tetrathiatrideca-1,12-diene]", "values": [{"measurement": "repellent and deterrent effect in bioassays (in words)", "setting": "mosquitoes", "result": "strong repellent and deterrent effect"}, {"measurement": "pest or weed control at 0.1 mg/cm2", "setting": "Aedes aegypti; Dosage 0.1 mg/cm^2", "result": 85, "unit": "%"}, {"measurement": "pest or weed control at 0.1 mg/cm2", "setting": "Aedes aegypti; [2]", "result": 92, "unit": "%"}, {"measurement": "Failure time", "setting": "Aedes aegypti; Dosage 0.1 mg/cm^2, 0 = immediate failure", "result": 0, "unit": "min"}, {"measurement": "Failure time", "setting": "Aedes aegypti; [2]", "result": 67.7, "unit": "min"}, {"measurement": "electroantennographic (EAD) response of mosquito antennae", "setting": "[1]", "result": "Antennal stimulatory"}]}
